Test results as given in patent publication US20090042993A1, “IDENTIFICATION OF NOVEL POST-TRANSLATIONAL PROTEIN MODIFICATIONS” (priority 2007, published 2009).

Legend:
BACE1 = BACE1 steady-state levels by Western blot in stably transfected CHO cells; assay type: cell-based, human
Procedure: Chinese Hamster Ovary (CHO) cells were grown in DMEM (Gibco BRL—Invitrogen, Carlsbad, Calif.) supplemented with 10% fetal bovine serum (FBS) and penicillin/streptomycin (Mediatech, Inc., Herndon, Va.) as described before (Puglielli et al., 2001, Nat. Cell Biol. 3: 905-912; Puglielli et al., 2003, J. Biol. Chem. 278: 19777-19783; Costantini et al., 2005, Biochem. J. 391: 59-67; Costantini et al., 2006, EMBO J. 25: 1997-2006). Cells were maintained in a humidified atmosphere with 5% CO2. For ceramide treatment, C6-ceramide (also simply called ceramide herein) was administered at the final concentration of 10 μM; treatment was started when cells were ˜30% confluent and carried out for 4 days, unless specified otherwise. Treatment with proteasome inhibitors MG-132 (5 μM) and lactacystin (10 μM) was done for 10 hours, as described earlier (Qing et al., 2004, FASEB J. 18: 1571-1573).
Cell lysates were prepared in GTIP buffer (100 mM Tris-pH 7.6, 20 mM EDTA, 1.5 M NaCl) with 1% Triton X-100 (Roche, Basel, Switzerland), 0.25% NP40 (Roche), and a protease inhibitor cocktail (Roche) as described before (Puglielli et al., 2003, J. Biol. Chem. 278: 19777-19783; Costantini et al., 2005, Biochem. J. 391: 59-67). Briefly, cell monolayers were washed twice in PBS, scraped, transferred into eppendorf tubes, and centrifuged at 8,000 rpm for 5 min in a table-top centrifuge. Cell pellets were then lysed in ice for 30 min with the buffer indicated above, and centrifuged again at 14,000 rpm prior to the recollection of the protein extracts. Proteins were quantitated with the BCA Protein Assay (Pierce, Rockford, Ill.) following the manufacturer's instructions.
For the immunoprecipitation of BACE1, cell lysates were pre-cleared with BioMag Protein A (Polysciences, Inc., Warrington, Pa.); beads were used at the concentration of 15 μl of the slurry per sample and separated with a magnetic holder. BACE1 was then immunoprecipitated with anti-BACE1 antibodies overnight and recovered with BioMag Protein A as above. The immunoprecipitate-bead complexes were washed 3 times in PBS and boiled for 10 min in SDS sample buffer (Invitrogen) with β-mercaptoethanol. Beads were then separated and the samples were analyzed by reducing SDS-PAGE.
Western blotting was performed on 10% Bis-Tris, 4-12% Bis-Tris, or 7% Tris-Acetate SDS-PAGE systems (NuPAGE; Invitrogen) as described (Puglielli et al., 2001, Nat. Cell Biol. 3: 905-912; Puglielli et al., 2003, J. Biol. Chem. 278: 19777-19783; Costantini et al., 2005, Biochem. J. 391: 59-67; Costantini et al., 2006, EMBO J. 25: 1997-2006). The following antibodies were used: anti-BACE1 N-terminal (monoclonal antibody; R&D Systems, Minneapolis, Minn.); anti-BACE1 C-terminal (polyclonal antibody; Abcam, Cambridge, Mass.); anti-pro-BACE1 (polyclonal; Abcam); anti-acetylated lysine (monoclonal; Abcam); anti-calreticulin (ER marker, polyclonal; Abcam); anti-58 K Golgi/formiminotransferase cyclodeaminase (Golgi marker, polyclonal; Abcam); anti-syntaxin (Golgi marker, monoclonal; Abcam); anti-EEA1 (endosomes, monoclonal; BD Transduction Laboratories, Lexington, Ky.); anti-actin (polyclonal; Cell Signaling, Danvers, Mass.). Secondary antibodies (Amersham) were used at a 1:6000 dilution. Binding was detected by chemiluminescence (LumiGLO kit; KPL, Gaithersburg, Md.). Only a representative blot of at least three different experiments is shown throughout the paper.
FIG. 1 illustrates how BACE1 is transiently acetylated in the lumen of the ER. For this experiment, CHO cells expressing human BACE1 were treated with C6-ceramide (also simply called ceramide herein) for different periods of time. BACE1 was then immunoprecipitated and analyzed by Western blotting. FIG. 1(A): CHO cells stably expressing BACE1 were treated with ceramide for the indicated time. BACE1 was immunoprecipitated from total cell lysates, separated on a 7% Tris-Acetate NuPAGE system, and then analyzed by Western blot using either anti-BACE1 or anti-acetylated lysine antibodies. […]

AT-1 = AT-1 mRNA by real-time quantitative PCR in SH-SY5Y cells; assay type: cell-based, human; conditions: C6-cer 10 μM
Procedure: FIG. 15(A): SH-SY5Y cells were treated with ceramide (C6-cer; 10 μM) prior to real-time quantitative PCR. Treatment was performed as previously described (Costantini et al., 2007; Costantini et al., 2005; Puglielli et al., 2003). Results are expressed as percent of control (n=5)±S.D. of control (no treatment). Asterisk (*) indicates statistical significance. […] FIG. 15(B): a cDNA library (frontal cortex) of late-onset AD (n=5 different subjects) and age-matched controls (n=5 different subjects) was analyzed by quantitative real-time PCR. Results are expressed as percent of age-matched controls±S.D. Asterisk (*) indicates statistical significance.

[1] = target: T1, ER membrane acetyl-CoA transport activity (Cricetulus griseus, UniProt G3H231); experiment: Acetyl-CoA transport assay into intact ER vesicles; assay type: biochemical, Chinese Hamster
T1 sequence (G3H231 1-550): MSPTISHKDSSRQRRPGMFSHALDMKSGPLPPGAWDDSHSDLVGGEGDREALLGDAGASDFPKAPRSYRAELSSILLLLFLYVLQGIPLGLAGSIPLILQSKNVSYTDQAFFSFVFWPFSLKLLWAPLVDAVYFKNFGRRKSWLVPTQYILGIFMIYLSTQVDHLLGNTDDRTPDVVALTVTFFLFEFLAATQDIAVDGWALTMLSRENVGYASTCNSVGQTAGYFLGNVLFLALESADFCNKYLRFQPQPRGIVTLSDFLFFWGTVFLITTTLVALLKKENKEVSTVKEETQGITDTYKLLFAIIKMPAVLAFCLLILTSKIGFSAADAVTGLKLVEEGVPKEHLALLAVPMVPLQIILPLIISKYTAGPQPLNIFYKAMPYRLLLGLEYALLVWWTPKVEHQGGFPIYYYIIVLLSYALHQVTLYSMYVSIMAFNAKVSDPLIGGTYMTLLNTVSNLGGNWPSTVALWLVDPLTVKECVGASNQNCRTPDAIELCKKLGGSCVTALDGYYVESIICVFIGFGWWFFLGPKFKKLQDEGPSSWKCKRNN
Procedure: Intact vesicles from the endoplasmic reticulum (ER) and the Golgi apparatus were purified on a 10-34% Iodixanol (OptiPrep; Axis-Shield, Norway) continuous gradient as described (Puglielli et al., 2001, Nat. Cell Biol. 3: 905-912). […] Fractions enriched in ER and Golgi markers (also called ER or Golgi vesicles herein) were separated, pooled together, and resuspended in isotonic/cryogenic buffer (0.25 M sucrose and 10 mM Tris-HCl, pH 7.4) in the presence of protease inhibitors (Roche). Latency of ER and Golgi vesicles was determined with the glucose-6-phosphatase (Clairmont et al., 1992, J. Biol. Chem. 267: 3983-3900) and the sialyl-transferase (Puglielli and Hirschberg, 1999, J. Biol. Chem. 274: 35596-35600) methods, respectively. The purity of the preparation was further confirmed by assaying the above enzymatic activities, together with transport of CMP-sialic acid.
Briefly, assays were performed in 100 μl final volume (isotonic/cryogenic buffer) using 25 to 50 μg of ER/Golgi vesicles protein. […] After 5 min at 30° C., reactions were stopped by lowering the temperature to 0-4° C. and by adding 100 μl of ice-cold isotonic/cryogenic buffer (described above). […] Pellets were then dissolved in 0.6 mL of NaOH 1 N; after neutralization with 0.2 mL of 4N HCl, samples were counted by scintillation spectrometry. […]
Asterisk (*) indicates statistical significance (n=3) (P<0.0005). FIG. 5(D): transport of CMP-sialic acid into ER and Golgi intact vesicles was measured as described in (A). […] FIG. 5(E): transport of ATP into ER intact vesicles obtained from control and ceramide-treated CHO cells was measured as described in FIG. 5(A). […]
Translocation was measured as described in the Materials and Methods section. […] FIG. 10(E): transport of ATP into ER intact vesicles obtained from control and ceramide-treated CHO cells was measured as described in FIG. 10(A). […]
Results are expressed as percent of control (no CoA; white bar) and are the average±S.D. Asterisk (*) indicates statistical significance. […]

CCCCCCCCCCCCC/C=C/[C@@H](O)[C@H](CO)NC(=O)CCCCC [ceramide, C6-ceramide]
steady-state levels of immature and mature BACE1 (BACE1; CHO cells expressing human BACE1, ceramide 10 μM, apparent plateau at day 4): progressive increase in the steady-state levels | steady-state levels of BACE1Ala (BACE1; CHO cells stably expressing BACE1Ala grown with ceramide): not affected | AT-1 mRNA level (AT-1): upregulated | increase in the Vmax of acetyl-CoA transport ([1]; ER vesicles from ceramide treated cells vs untreated): ~30% | Km of acetyl-CoA transport ([1]; ER vesicles from ceramide treated cells, Lineweaver-Burk): comparable to untreated cells
